In ChEMBL document CHEMBL5233218, “Quinolizidine alkaloids derivatives from Sophora alopecuroides Linn: Bioactivities, structure-activity relationships and preliminary molecular mechanisms” (Eur J Med Chem, 2020):
pIC50: −log10 of the molar value.

Assays:
Type in all cases: functional, cell-based
HepG2 = assay: Cytotoxicity against human HepG2 cells assessed as inhibition of cell growth by MTT assay
H22 = assay: Cytotoxicity against mouse H22 cells assessed as inhibition of cell growth by MTT assay
LS180 = assay: Cytotoxicity against human LS180 cells assessed as inhibition of cell growth by MTT assay
[1] = Antiproliferative activity against rat HSC-T6 cells
MRC5 = assay: Anti-fibrotic activity in human MRC5 cells assessed as inhibition of TGF-beta1 induced total collagen deposition

SMILES	pIC50 (H22)	pIC50 (LS180)	also measured
O=c1[nH]cc(F)c(=O)[nH]1 [FLUOROURACIL]	–	–	pIC50 (HepG2): 5.10
COC(=O)CCC[C@@H]1[C@H]2CCCN3CCC[C@@H](CN1P(=O)(Oc1cccc4ccccc14)N(CCCl)CCCl)[C@@H]23 (some centres undefined)	5.68	5.68	–
COC(=O)CCC[C@@H]1[C@H]2CCCN3CCC[C@@H](CN1P(=O)(Oc1ccc(F)cc1)N(CCCl)CCCl)[C@@H]23 (some centres undefined)	5.68	5.68	–
COC(=O)CCC[C@@H]1[C@H]2CCCN3CCC[C@@H](CN1P(=O)(Oc1ccc4ccccc4c1)N(CCCl)CCCl)[C@@H]23 (some centres undefined)	5.68	5.68	–
CN(C(=O)CN/C=C/c1ccccc1)[C@@H]1CC(=S)N2C[C@@H]3CCCN4CCC[C@@H]([C@H]34)[C@H]2C1	–	–	pIC50 [1]: 4.21
O=C1CC(n2ccc3cc(Cl)ccc32)C[C@@H]2[C@H]3CCCN4CCC[C@@H](CN12)[C@@H]34 (some centres undefined)	–	–	pIC50 (MRC5): 5.48
O=C1CCC[C@@H]2[C@H]3CCCN4CCC[C@@H](CN12)[C@@H]34 [MATRINE]	–	–	pIC50 [1]: 3.89
COC(=O)CCC[C@@H]1[C@H]2CCCN3CCC[C@@H](CN1P(=O)(Oc1cccc(Cl)c1)N(CCCl)CCCl)[C@@H]23 (some centres undefined)	5.68	5.68	–
COC(=O)CCC[C@@H]1[C@H]2CCCN3CCC[C@@H](CN1P(=O)(Oc1ccc(Br)cc1)N(CCCl)CCCl)[C@@H]23 (some centres undefined)	5.68	5.68	–
